Patent US20220409619A1, “INHIBITORS OF HUMAN IMMUNODEFICIENCY VIRUS REPLICATION” (VIIV HEALTHCARE UK (No. 5) LIMITED, priority 2019, published 2022)

Experiments:
[1] = Compound cytotoxicity, XTT-based colorimetric assay; assay type: cell-based; conditions: human; uninfected MT2 cells, day 4, XTT-based colorimetric assay
Method: Compound cytotoxicity and the corresponding CC50 values were determined using the same protocol as described in the antiviral assay except that uninfected cells were used. Cytotoxicity was assessed on day 4 in uninfected MT2 cells by using a XTT (2,3-bis[2-Methoxy-4-nitro-5-sulfophenyl]-2H-tetrazolium-5-carboxyanilide inner salt)-based colorimetric assay (Sigma-Aldrich, St Louis, Mo.).

[2] = system: recombinant NL4-3 virus (nef section replaced with Renilla luciferase gene) in MT-2 cells; test: HIV cell culture assay (antiviral activity, luciferase readout); assay type: cell-based; conditions: Renilla, NL43
Method: HIV cell culture assay—MT-2 cells, 293T cells and the proviral DNA clone of NL4-3 virus were obtained from the NIH AIDS Research and Reference Reagent Program. MT-2 cells were propagated in RPMI 1640 media supplemented with 10% heat inactivated fetal bovine serum (FBS), 100 μg/ml penicillin G and up to 100 units/mL streptomycin. The 293T cells were propagated in DMEM media supplemented with 10% heat inactivated FBS, 100 μg/mL penicillin G and 100 μg/mL streptomycin. A recombinant NL4-3 proviral clone, in which a section of the nef gene was replaced with the Renilla luciferase gene, was used to make the reference virus used in these studies. The recombinant virus was prepared through transfection of the recombinant NL4-3 proviral clone into 293T cells using Transit-293 Transfection Reagent from Mirus Bio LLC (Madison, Wis.). Supernatent was harvested after 2-3 days and the amount of virus present was titered in MT-2 cells using luciferase enzyme activity as a marker by measuring luciferase enzyme activity. Luciferase was quantitated using the EnduRen Live Cell Substrate from Promega (Madison, Wis.). Antiviral activities of compounds toward the recombinant virus were quantified by measuring luciferase activity in MT-2 cells infected for 4-5 days with the recombinant virus in the presence of serial dilutions of the compound.
The 50% effective concentration (EC50) was calculated by using the exponential form of the median effect equation where (Fa)=1/[1+(ED50/drug conc.)^m] (Johnson V A, Byington R T. Infectivity Assay. In Techniques in HIV Research. ed. Aldovini A, Walker B D. 71-76. New York: Stockton Press. 1990). Curve fitting and analysis were performed with ActivityBase XE Runner software version 9.1.0.4 using model 203 (ID Business Solutions, LTD, Guildford, UK).

| SMILES | CC50 at 4 days [1] | EC50 [2] |
| --- | --- | --- |
| O=C(Cn1nc(C(F)F)c2c1C(F)(F)[C@@H]1C[C@H]21)N[C@@H](Cc1cc(F)cc(F)c1)c1nc(-c2cccc(C(F)(F)F)n2)cc(=O)n1-c1ccc(Cl)c2c(NS(=O)(=O)C3CC3)nn(CC(F)F)c12 (atropisomer, axis not shown; (P)) [Example 44, N-((S)-1-((1P)-1-(4-chloro-3-(cyclopropanesulfonamido)-1-(2,2-difluoroethyl)-1H-indazol-7-yl)-6-oxo-4-(6-(trifluoromethyl)pyridin-2-yl)-1,6-dihydropyrimidin-2-yl)-2-(3,5-difluorophenyl)ethyl)-2-((3bS,4aR)-3-(difluoromethyl)-5,5-difluoro-3b,4,4a,5-tetrahydro-1H-cyclopropa[3,4]cyclopenta[1,2-c]pyrazol-1-yl)acetamide] | > 100 nM | 0.24 nM |
| COC(C)(C)C#Cc1cc(=O)n(-c2ccc(Cl)c3c(NS(=O)(=O)C4CC4)nn(CC(F)F)c23)c([C@H](Cc2cc(F)cc(F)c2)NC(=O)Cn2nc(C(F)(F)F)c3c2C(F)(F)[C@@H]2C[C@H]32)n1 (atropisomer, axis not shown; (P)) [Example 45, N-((S)-1-((1P)-1-(4-chloro-3-(cyclopropanesulfonamido)-1-(2,2-difluoroethyl)-1H-indazol-7-yl)-4-(3-methoxy-3-methylbut-1-yn-1-yl)-6-oxo-1,6-dihydropyrimidin-2-yl)-2-(3,5-difluorophenyl)ethyl)-2-((3bS,4aR)-5,5-difluoro-3-(trifluoromethyl)-3b,4,4a,5-tetrahydro-1H-cyclopropa[3,4]cyclopenta[1,2-c]pyrazol-1-yl)acetamide] | > 100 nM | 0.12 nM |
| CCOc1cnc(-c2cc(=O)n(-c3ccc(Cl)c4c(NS(=O)(=O)C5CC5)nn(CC(F)F)c34)c([C@H](Cc3cc(F)cc(F)c3)NC(=O)Cn3nc(C(F)F)c4c3C(F)(F)[C@@H]3C[C@H]43)n2)nc1 (atropisomer, axis not shown; (aR)) [Example 29, N-((S)-1-((1′P)-1′-(4-chloro-3-(cyclopropanesulfonamido)-1-(2,2-difluoroethyl)-1H-indazol-7-yl)-5-ethoxy-6′-oxo-1′,6′-dihydro-[2,4′-bipyrimidin]-2′-yl)-2-(3,5-difluorophenyl)ethyl)-2-((3bS,4aR)-3-(difluoromethyl)-5,5-difluoro-3b,4,4a,5-tetrahydro-1H-cyclopropa[3,4]cyclopenta[1,2-c]pyrazol-1-yl)acetamide] | > 100 nM | 0.052 nM |
| Cn1nc(NS(C)(=O)=O)c2c(Cl)ccc(-n3c([C@H](Cc4cc(F)cc(F)c4)NC(=O)Cn4nc(C(F)F)c5c4C(F)(F)[C@@H]4C[C@H]54)nc(-c4ccc(Cl)cn4)cc3=O)c21 (atropisomer, axis not shown; (P)) [Example 24, N-((S)-1-((1P)-1-(4-chloro-1-methyl-3-(methylsulfonamido)-1H-indazol-7-yl)-4-(5-chloropyridin-2-yl)-6-oxo-1,6-dihydropyrimidin-2-yl)-2-(3,5-difluorophenyl)ethyl)-2-((3bS,4aR)-3-(difluoromethyl)-5,5-difluoro-3b,4,4a,5-tetrahydro-1H-cyclopropa[3,4]cyclopenta[1,2-c]pyrazol-1-yl)acetamide] | > 100 nM | 0.37 nM |
| COc1ccnc(-c2cc(=O)n(-c3ccc(Cl)c4c(NS(=O)(=O)C5CC5)nn(CC(F)F)c34)c([C@H](Cc3cc(F)cc(F)c3)NC(=O)Cn3nc(C(F)F)c4c3C(F)(F)[C@@H]3C[C@H]43)n2)n1 (atropisomer, axis not shown; (aR)) [Example 33, N-((S)-1-((1′P)-1′-(4-chloro-3-(cyclopropanesulfonamido)-1-(2,2-difluoroethyl)-1H-indazol-7-yl)-4-methoxy-6′-oxo-1′,6′-dihydro-[2,4′-bipyrimidin]-2′-yl)-2-(3,5-difluorophenyl)ethyl)-2-((3bS,4aR)-3-(difluoromethyl)-5,5-difluoro-3b,4,4a,5-tetrahydro-1H-cyclopropa[3,4]cyclopenta[1,2-c]pyrazol-1-yl)acetamide] | > 100 nM | 0.13 nM |
| CC(C)(C#Cc1cc(=O)n(-c2ccc(Cl)c3c(NS(=O)(=O)C4CC4)nn(CC(F)F)c23)c([C@H](Cc2cc(F)cc(F)c2)NC(=O)Cn2nc(C(F)(F)F)c3c2C(F)(F)[C@@H]2C[C@H]32)n1)S(C)(=O)=O (atropisomer, axis not shown; (P)) [Example 36, N-((S)-1-((1P)-1-(4-chloro-3-(cyclopropanesulfonamido)-1-(2,2-difluoroethyl)-1H-indazol-7-yl)-4-(3-methyl-3-(methylsulfonyl)but-1-yn-1-yl)-6-oxo-1,6-dihydropyrimidin-2-yl)-2-(3,5-difluorophenyl)ethyl)-2-((3bS,4aR)-5,5-difluoro-3-(trifluoromethyl)-3b,4,4a,5-tetrahydro-1H-cyclopropa[3,4]cyclopenta[1,2-c]pyrazol-1-yl)acetamide] | > 100 nM | 0.16 nM |
| CCOc1ccc(-c2cc(=O)n(-c3ccc(Cl)c4c(NS(=O)(=O)C5CC5)nn(CC(F)F)c34)c([C@H](Cc3cc(F)cc(F)c3)NC(=O)Cn3nc(C(F)F)c4c3C(F)(F)[C@@H]3C[C@H]43)n2)cn1 (atropisomer, axis not shown; (P)) [Example 37, N-((S)-1-((1P)-1-(4-chloro-3-(cyclopropanesulfonamido)-1-(2,2-difluoroethyl)-1H-indazol-7-yl)-4-(6-ethoxypyridin-3-yl)-6-oxo-1,6-dihydropyrimidin-2-yl)-2-(3,5-difluorophenyl)ethyl)-2-((3bS,4aR)-3-(difluoromethyl)-5,5-difluoro-3b,4,4a,5-tetrahydro-1H-cyclopropa[3,4]cyclopenta[1,2-c]pyrazol-1-yl)acetamide] | > 100 nM | 3.7 nM |
| Cc1ccnc(-c2cc(=O)n(-c3ccc(Cl)c4c(NS(C)(=O)=O)nn(C)c34)c([C@H](Cc3cc(F)cc(F)c3)NC(=O)Cn3nc(C(F)F)c4c3C(F)(F)[C@@H]3C[C@H]43)n2)c1 (atropisomer, axis not shown; (P)) [Example 16, N-((S)-1-((1P)-1-(4-chloro-1-methyl-3-(methylsulfonamido)-1H-indazol-7-yl)-4-(4-methylpyridin-2-yl)-6-oxo-1,6-dihydropyrimidin-2-yl)-2-(3,5-difluorophenyl)ethyl)-2-((3bS,4aR)-3-(difluoromethyl)-5,5-difluoro-3b,4,4a,5-tetrahydro-1H-cyclopropa[3,4]cyclopenta[1,2-c]pyrazol-1-yl)acetamide] | > 100 nM | 0.31 nM |
| COc1cnc(-c2cc(=O)n(-c3ccc(Cl)c4c(NS(=O)(=O)C5CC5)nn(CC(F)F)c34)c([C@H](Cc3cc(F)cc(F)c3)NC(=O)Cn3nc(C(F)F)c4c3C(F)(F)[C@@H]3C[C@H]43)n2)cn1 (atropisomer, axis not shown; (P)) [Example 31, N-((S)-1-((1P)-1-(4-chloro-3-(cyclopropanesulfonamido)-1-(2,2-difluoroethyl)-1H-indazol-7-yl)-4-(5-methoxypyrazin-2-yl)-6-oxo-1,6-dihydropyrimidin-2-yl)-2-(3,5-difluorophenyl)ethyl)-2-((3bS,4aR)-3-(difluoromethyl)-5,5-difluoro-3b,4,4a,5-tetrahydro-1H-cyclopropa[3,4]cyclopenta[1,2-c]pyrazol-1-yl)acetamide] | > 100 nM | 0.53 nM |
| O=C(Cn1nc(C(F)F)c2c1C(F)(F)[C@@H]1C[C@H]21)N[C@@H](Cc1cc(F)cc(F)c1)c1nc(-c2ncc(F)cn2)cc(=O)n1-c1ccc(Cl)c2c(NS(=O)(=O)C3CC3)nn(CC(F)F)c12 (atropisomer, axis not shown; (aR)) [Example 30, N-((S)-1-((1′P)-1′-(4-chloro-3-(cyclopropanesulfonamido)-1-(2,2-difluoroethyl)-1H-indazol-7-yl)-5-fluoro-6′-oxo-1′,6′-dihydro-[2,4′-bipyrimidin]-2′-yl)-2-(3,5-difluorophenyl)ethyl)-2-((3bS,4aR)-3-(difluoromethyl)-5,5-difluoro-3b,4,4a,5-tetrahydro-1H-cyclopropa[3,4]cyclopenta[1,2-c]pyrazol-1-yl)acetamide] | > 100 nM | 0.2 nM |
